Three compounds from PMC8406801, “Naringenin Inhibits Platelet Activation and Arterial Thrombosis Through Inhibition of Phosphoinositide 3-Kinase and Cyclic Nucleotide Signaling” (Frontiers in Pharmacology, 2021) can be followed below.

“And” between values parts separate entries of the source, which are not always exact repeats. Equal values may be shown once. Where a name gives a salt, the structure may show the parent alone.

One series deals with PI3Kp110β. Put plainly: Ex vivo immunoblotting of PI3Kp110β in ADP-stimulated PRP of treated rats. The conditions noted are these: clopidogrel group, ex vivo; Figure 8B. Set-up: species or system rat. Here is the method: (§1) Male SD rats were randomly divided into 5 groups with 6 rats in each group. […] Sixty minutes after the last sample treatment, blood was drawn from the abdominal aorta of rats into the siliconized vacutainers containing 1:9 (v/v) 3.8% sodium citrate. The collected blood was centrifuged at 100 × g for 10 min at room temperature to obtain PRP. […] The platelet counts of PRP were adjusted to 4×10^8 cells/mL using PPP. PRP was incubated for 5 min at 37°C and then stimulated by ADP (5 μM). The maximum platelet aggregation rate was determined as mentioned above.
(§2) For in vitro platelet aggregation, aliquots of washed platelets were preincubated with vehicle or various concentrations of naringenin for 5 min and stimulated with ADP (10 μmol/L) under stirring at 37°C for 5 min. For ex vivo platelet aggregation, PRP was incubated at 37°C for 5 min and stimulated with ADP (5 μmol/L) under stirring at 37 °C. The platelet aggregation was terminated by adding ethylenediaminetetraacetic acid (EDTA; 10 mM). Total protein was prepared using RIPA lysis buffer and protein content was determined by bicinchoninic acid (BCA) protein assay kit. Equal amounts of platelet proteins (30 μg) were separated on 10% SDS polyacrylamide gel electrophoresis (SDS-PAGE) and then transferred to poly vinylidene difluoride (PVDF) membranes and subjected to western blot. Blots were blocked with TBS-Tween 20 containing 5% BSA and probed with primary antibodies diluted in blocking solution at 4°C overnight followed by incubation with the corresponding HRP secondary antibodies. The protein bands were visualized using enhanced chemiluminescence (ECL).
(§3) Blood was collected and PRP was obtained after the last treatment. Platelet aggregation was induced by ADP (5 μmol/L) (A). Data are expressed as means ± SD (n = 6). After ADP stimulation, platelet proteins were then extracted and analyzed by immunoblotting using PI3Kp110β antibody (B) and phospho-specific antibodies such as Akt^Ser473 (C), Akt^Thr308 (D) and ERK1/2^Thr202/Tyr204 (E). Total level of GAPDH was measured on each sample as a loading control. The blots shown are representative of three separate experiments. The relative protein expression levels were quantified by ImageJ 1.47v software. The level of relative protein expression obtained with vehicle control was taken as 1. R represents the level of relative protein expression in resting platelets. Data are expressed as means ± SD (n = 3). *p < 0.05, **p < 0.01, ***p < 0.001 compared with the vehicle control group (Con).
(§4) To further investigate the antiplatelet mechanisms of naringenin ex vivo, several signaling molecules such as PI3Kp110β, Akt and ERK were detected. After oral administration of naringenin (200, 400, and 800 mg/kg) to rats for 7 days, rat PRP was prepared and stimulated by ADP (5 μmol/L), and platelets were lysed to determine protein phosphorylation levels using western blot.

Series [1] has as its system carotid arterial thrombus. Description: FeCl3-induced carotid arterial thrombus model in rats. Type of series: in vivo, rat. To be noted: oral 7.875 mg/kg for 7 days. As for the experimental part: To determine the effects of naringenin on thrombogenesis, a FeCl3-induced carotid arterial thrombus model was performed as reported previously with some modifications ([Eckly et al., 2011]). […] The rats were anaesthetized using 1% pentobarbital sodium salt and fixed supinely after the last administration. The left carotid artery was exposed and thrombosis was induced by applying a Whatman filter paper (5 mm × 1 mm) saturated with 10% (w/v) FeCl3 on the top of the left carotid artery for 5 min. […] Time to occlusion of the carotid artery was defined as a blood flow of 0 ml/min for 3 min. […] At the end of the experiment, the left carotid artery was dissected. A haematoxylin and eosin stain was performed on the artery.

A further series deals with tail bleeding. The conditions noted are these: mouse, in vivo, po, 11.375 mg/kg. Here is the method:
Sixty minutes after the last administration, mice were anaesthetized with 1% pentobarbital sodium salt and placed on a 37°C heating pad. The tail was transected at a site 3 mm proximal to the tip and immediately immersed into saline kept at 37°C. The time to bleeding cessation (defined as no bleeding for 30 s) was measured. When the bleeding time lasted longer than 10 min, the bleeding was stopped, and the bleeding time was recorded as 10 min.

Series [2] deals with Akt Thr308 phosphorylation. Put plainly: Ex vivo immunoblotting of phospho-Akt (Thr308) in ADP-stimulated PRP of treated rats. The conditions noted are these: clopidogrel group, ex vivo; Figure 8D. Also on record: species or system rat. Here is the method: as §1, §2, §3, §4
For series [3], the system named is Akt Ser473 phosphorylation. Description: Ex vivo immunoblotting of phospho-Akt (Ser473) in ADP-stimulated PRP of treated rats. To be noted: clopidogrel group, ex vivo; Figure 8C. Also on record: species or system rat. Here is the method:
as §1, §2, §3, §4
Background: A western blot detects proteins with antibodies after separation by electrophoresis.

For series [4], the system named is Akt Ser473 phosphorylation. Description: Immunoblotting of phospho-Akt (Ser473) in ADP-stimulated washed platelets. To be noted: Figure 5B: ADP 10 μM, LY294002 5 μM alone, single replicates. In kind it is cell-based, rat. Here is the method:
as §2
FIGURE 4 Naringenin inhibits PI3K-mediated signaling in ADP-induced platelets. Washed rat platelets were preincubated without or with naringenin at 37°C for 5 min, and then stimulated with ADP (10 μmol/L) under stirring for 5 min. Platelet proteins were then extracted and analyzed by immunoblotting using PI3Kp110β antibody (A) and phospho-specific antibodies such as Akt^Ser473 (B), Akt^Thr308 (C), ERK1/2^Thr202/Tyr204 (D) and GSK3β^Ser9 (E). Total level of GAPDH was measured on each sample as a loading control. The blots shown are representative of three separate experiments. The relative protein expression levels were quantified by ImageJ 1.47v software. The level of relative protein expression obtained with vehicle control (0 μM) was taken as 1. R represents the level of relative protein expression in resting platelets. Data are expressed as means ± SD (n = 3). *p < 0.05, **p < 0.01, ***p < 0.001 compared with the vehicle control group.
FIGURE 5 Effects of naringenin combined with PI3K pan inhibitor LY294002 on platelet aggregation and Akt phosphorylation. Washed rat platelets were preincubated with naringenin (200 μmol/L) alone, the PI3K pan inhibitor LY294002 (5 μmol/L) alone or both for 5 min prior to ADP (10 μmol/L) activation. After stimulation with ADP, platelet aggregation was quantified and expressed as a percentage (A). Data are expressed as means ± SD (n = 6). ***p < 0.001 compared with the ADP-treated group, ^### p < 0.001 compared with naringenin alone or LY294002 alone. Platelet proteins were then extracted and specific antibodies were used to measure the level of total and phosphorylated Akt (B). The blots shown are representative of three separate experiments. The relative protein expression levels were quantified by ImageJ 1.47v software. The level of phosphorylation obtained in the ADP-treated group was taken as 1. Data are expressed as means ± SD (n = 3). ***p < 0.001 compared with the ADP-treated group, ^### p < 0.001 compared with naringenin alone or LY294002 alone.

The subject of series [5] is washed rat platelets. Put plainly: ADP (10 μM)-induced aggregation of washed rat platelets. In kind it is cell-based.
In series [6] the test system is VASP Ser239 phosphorylation. Description: Immunoblotting of phospho-VASP (Ser239) in ADP-stimulated washed platelets, with or without PKA, PKG, PKC inhibitors. In kind it is cell-based, rat. The conditions noted are these: inhibitor 30 μmol/L before treatment with naringenin, ADP 10 μmol/L. As for the experimental part: as §2
VASP is a substrate for cAMP- and cGMP- dependent protein kinases, which mediate cAMP- and cGMP-dependent inhibitory signaling in platelets, respectively. Increased cAMP levels followed by the activation of cAMP-dependent protein kinase A (PKA) phosphorylates VASP at position Ser157, whereas the elevation of cGMP leads to VASP phosphorylation at position Ser239 by cGMP-dependent protein kinase G (PKG) ([Aszódi et al., 1999]; [Li et al., 2003a]). To further examine whether naringenin modulates cAMP- or cGMP-mediated inhibitory signaling, the phosphorylation of VASP (Ser157 and Ser239) in washed platelets on stimulation with ADP were measured in the absence or presence of naringenin (100, 200, 400, and 800 μM). […] To further confirm the antiplatelet effects of naringenin through PKA-dependent signaling, the effects of naringenin on platelet aggregation were measured in the presence of PKG inhibitor (Rp-8-Br-PET-cGMPS) and PKA inhibitor (H89).
FIGURE 7 Naringenin promotes VASP phosphorylation. The effects of naringenin on phosphorylation of VASP (at positions Ser 157 and Ser239) were measured in washed platelets upon stimulation with ADP (10 μmol/L) by western blotting (A). The blots shown are representative of three separate experiments. The phosphorylation levels were quantified by ImageJ 1.47v software. The level of phosphorylation obtained with vehicle control (0 μM) was taken as 1 (B,C). R represents the phosphorylation level in resting platelets. Data are expressed as means ± SD (n = 3). *p < 0.05, ***p < 0.001 compared with the vehicle control group. VASP phosphorylation at Ser239 was also analyzed in washed platelets incubated with 5 μmol/L PKA (H89), 30 μmol/L PKG (Rp-8-Br-PET-cGMPS), or 5 μmol/L PKC (GF109203X) inhibitors before treatment with naringenin (D). Washed platelets were incubated with vehicle or naringenin (200 μmol/L) at 37°C in the presence or absence of 5 μmol/L PKA (H89) or 30 μmol/L PKG (Rp-8-Br-PET-cGMPS) inhibitors. After treatment, platelets were stimulated with ADP (10 μmol/L) to trigger aggregation (E). Data are expressed as means ± SD (n = 6). ***p < 0.001 compared with the ADP-treated group, ^# p < 0.05, ^### p < 0.001 compared with naringenin alone or H89 alone.

In series [7] the test system is washed rat platelets. Put plainly: ADP (10 μM)-induced aggregation of washed rat platelets. In kind it is cell-based. To be noted: inhibitor 30 μmol/L preincubation, naringenin 200 μmol/L, ADP 10 μmol/L. Here is the method: Platelet-rich plasma (PRP) was obtained, and after the addition of 100 ng/ml PGE1, platelets were pelleted at 900 × g for 10 min. […] Washed platelets were preincubated with vehicle (0.4% dimethyl sulfoxide) or various concentrations of naringenin in the presence of 2 mM CaCl2 for 5 min at 37°C, and then further stimulated by ADP (10 μM), thrombin (0.2 U/mL) or collagen (2 μg/ml). The maximum platelet aggregation rate was detected within 5 min with continuous stirring.
Platelet aggregation was induced by ADP using washed platelets and PRP. Washed platelets were preincubated with vehicle (containing 0.4% DMSO) or different doses (100, 200, 400, and 800 μM) of naringenin or naringin for 5 min before activation with ADP (10 μM) for 5 min.
FIGURE 1 Effects of naringenin and naringin on platelet aggregation. Chemical structure of naringin (A) and naringenin (B). The effects of naringin (C) or naringenin (D) on PRP were measured following stimulation with 10 μmol/L ADP. Rat washed platelet aggregation performed with or without different concentrations of naringin (E) or naringenin (F) was recorded after stimulation with 10 μmol/L ADP. Similarly, Washed platelet aggregation performed with vehicle or various concentrations of naringenin was recorded after stimulation with 0.2 U/mL thrombin (G) or 2 μg/ml collagen (H). WP represents washed platelets. Data are expressed as means ± SD (n = 6), the level of aggregation obtained at 5 min with vehicle-treated samples (0 μM) was taken as 100%. *p < 0.05, **p < 0.01, ***p < 0.001 compared with the vehicle control group.

In the case of `COC(=O)[C@H](c1ccccc1Cl)N1CCc2sccc2C1` [Clopidogrel, clopidogrel, reference compound], in the series on PI3Kp110β, the “PI3Kp110β / GAPDH (Fold to Control)” value is 0.8304 and 0.8095 and 1.1247; the “PI3Kp110β / GAPDH (raw data)” value was 0.4069 and 0.3966 and 0.5511. The “vessel occlusion time of rats” value in [1] is “considerably delayed”. In series [1] (10% FeCl3, single animals, no occlusion within 20 min recorded as 20 min, 7.875 mg/kg), the “Occlusion time” value is 18.3 min and 20.0 min. Further, the “effect on tail bleeding time” value in the series on tail bleeding is given as “markedly extended”. Besides, in series [2], the “p-Akt Thr308 / t-Akt (Fold to Control)” value is 0.3303 and 0.3457 and 0.2827; the “p-Akt Thr308 / t-Akt (raw data)” value is 0.2780 and 0.2909 and 0.2379. For the same compound, in [3], the “p-Akt Ser473 / t-Akt (Fold to Control)” value is 0.1574 and 0.1140 and 0.1683; the “p-Akt Ser473 / t-Akt (raw data)” value is 0.1750 and 0.1267 and 0.1870.
As to `O=c1cc(N2CCOCC2)oc2c(-c3ccccc3)cccc12` [LY294002, reference compound], the “p-Akt Ser473 / t-Akt” value in [4] (raw data) is 0.3729 and 0.2624 and 0.3579. Moreover, the “p-Akt Ser473 / t-Akt (Fold to ADP only)” value in [4] is 0.4284 Fold to ADP only and 0.3015 Fold to ADP only and 0.4113 Fold to ADP only. Moreover, in the series with washed rat platelets [5] (Figure 5A: washed platelets, ADP 10 μM, LY294002 5 μM alone, single replicates), the “Aggregation (%)” value was 47.5% and 35.4% and 37.3% and 29.8% and 45.4% and 28.0%.
In the case of `O=c1c2nc(Br)n([C@@H]3O[C@@H]4CO[P@@](O)(=S)O[C@H]4[C@H]3O)c2nc2[nH]c(-c3ccccc3)cn12` [Rp-8-Br-PET-cGMPS, Rp-8-Bromo-β-phenyl-1, N2-ethenoguanosine 3´, 5´-cyclic mono-phosphorothioate sodium salt], the “naringenin-induced phosphorylation of VASP at Ser239 after kinase inhibitor” value in [6] was “only small changes”. In the series with washed rat platelets [5] (Rp-8-Br-PET-cGMPS (30 μM)+ADP (10 μM), Figure 7E), the “Aggregation (%)” value was 67.3% and 69.8% and 64.5% and 66.3% and 65.0% and 70.4%. Also, the “platelet aggregation when incubated with naringenin after kinase inhibitor” value in the series with washed rat platelets [7] is “did not affect the final extent of platelet aggregation”.
